Experimental data: US20220145406A1, “BIOMARKERS, AND USES IN TREATMENT OF VIRAL INFECTIONS, INFLAMMATIONS, OR CANCER” (ABIVAX, priority 2018, published 2022)
Several values for one entry are separate records, joined by “and”; a condition that tells them apart may be missing. Equal entries are not always repeated.

Test system: HIV RNA
Assay: RNA CaptureSeq of HIV RNA splicing in infected PBMCs
Format: cell-based, HIV-1
Procedure: Total RNA was extracted from infected and uninfected PBMC samples using TRIzol reagent (Invitrogen) following the manufacturer's protocol. The RNA concentrations and purity were determined using the RNA 6000 Bioanalyzer kit (Agilent). For cDNA synthesis, 1 μg of total RNA was treated with DNase I (Invitrogen) and then utilized as a template for reverse transcription using the Verso cDNA kit with a blend of random hexamers and anchored oligo-dT (Thermo Scientific), according to the manufacturer's instructions. After KAPA Hyper Prep (ROCHE) library preparation from 1 μg total RNA, we proceeded with SeqCap EZ capture (ROCHE) following the manufacturer's recommendations. Hybrid selection was performed with a custom SeqCap EZ Choice Library (Roche NimbleGen) containing the following regions; chromosome 8 (9,760,617 to 9,761,780 and 65,285,285 to 65,296,944). chromosome 20 (61,797,549 to 61,812,855), chromosome 1 (1,102,000 to 1,106,000), chromosome 13 (92,000,074 to 92,006,833), chromosome 15 (22,512,831 to […]) and the genome of the HIV Ada8 strain. This library was designed through the NimbleDesign portal (v1.2.R1) using genome build hg19 NCBI Build 37.1/GRCh37. Sequencing was performed on a NextSeq 500 (Illumina) with 18 samples on a HighOutput Cartridge (2×400 million reads of 75 bases each).
To profile viral transcriptional events modulated by ABX464 and thereby assess the full depth of the HIV transcriptome, we employed a recently described targeted RNA capture and sequencing strategy (RNA CaptureSeq). This strategy involves the construction of tiling arrays across the HIV genome, against which cDNAs are hybridized, eluted and sequenced. RNA CaptureSeq is similar to previous in-solution capture methods and exome sequencing approaches, but when combined with deep-sequencing technology, provides saturating coverage and permits the robust assembly of rare and unannotated HIV transcripts.
PBMCs from 6 HIV-negative donors were infected with the YU-2 strain, followed by treatment with ABX464. […] After cDNA capture from infected cells that were untreated or treated with ABX464, libraries were prepared and sequenced using an Illumina sequencing facility. To highlight potential new splicing events induced by ABX464, we used a custom bioinformatics pipeline with the main step involving the assembly of putative transcripts from targeted RNA sequencing reads to construct contigs (Illumina paired-end 2×75 bp) (FIGS. 6 A and B). The putative transcripts (contigs) were then mapped to the HIV genome. The HIV profiling datasets used in our analysis yielded high sequence coverage (2 to 30 million reads for the 9 kb genome), allowing deep quantification of HIV splice variants.
To test whether enhanced splicing by ABX464 generates new viral RNA variants, the splicing events were filtered and analyzed. After mapping the contigs to the genome of the YU-2 strain, the latter was used as an anchor for additional clustering and assembly of new HIV transcripts. The partial gene structures generated by the spliced alignment were merged whenever they shared consecutive splicing sites spanning an intronic viral sequence. The superstructures so formed correspond to all possible HIV gene structures for which each complete exon is supported by at least one of the alignments. At the HIV transcript level, this led to the formation of superassemblies, where each superassembly is a merge of initial contigs matching a predicted superstructure. […] FIG. 1C and Table III present the distribution of the number of contigs that were merged to form one superassembly for each donor. […]

[1] = PBMCs infected with YU2, treated with ABX464, one value per donor library

**Q.** What does the source list for `FC(F)(F)Oc1ccc(Nc2ccc3cccc(Cl)c3n2)cc1` [ABX464, 8-chloro-N-(4-(trifluoromethoxy)phenyl)quinolin-2-amine]?
**A.** assembled contigs corresponding to spliced RNAs (ABX464-treated PBMC samples infected with YU-2): 90%; contig counts spliced RNA transcripts Gag [1]: 18 and 42 and 25 and 13 and 19 and 26; contig counts spliced RNA transcripts Pol [1]: 67 and 61 and 17 and 14 and 12 and 35; contig counts spliced RNA transcripts Vif [1]: 32 and 34 and 15 and 16 and 12 and 25; contig counts spliced RNA transcripts env [1]: 59 and 42 (2×) and 37 and 13 and 35; contig counts spliced RNA transcripts rev [1]: 23 and 21 and 17 and 9 and 12 and 29; contig counts spliced RNA transcripts tat [1]: 16 and 18 (2×) and 19 and 15 and 24; contig counts spliced RNA transcripts vpr [1]: 14 (2×) and 9 and 12 (2×) and 11; contig counts spliced RNA transcripts vpu [1]: 7 and 5 and 13 and 11 (2×) and 17; contig counts Complete_mRNA (PBMCs infected with YU2, treated with ABX464, one value per donor library (D1, D4-D8)): 11 and 13 and 6 (2×) and 32 and 15
